{"source": "patent US6794372B2", "about": "“Nitrate salts of antimicrobial agents” (Nicox S.A., priority 2000, dated 2004)", "key": {"[1]": {"system": "Escherichia Coli (ATCC25922)", "test": "Dilution test in vitro on medium for antibacterial agents, strain E. Coli", "type": "cell-based", "settings": "CAMH broth, 5×10^5 CFU/ml, 35° C. for 20 hr, read with the naked eye", "text": "(§1) Dilution Test in vitro on Medium for Antibacterial Agents\nThe capability to antagonize the arising of the microbial resistance of the nitrate salts of the antimicrobial compounds in comparison with that of the respective precursors has been evaluated.\n(§2) Such activity has been determined by using the dilution method in vitro on culture medium as described by Sahm et al. (S. D. Sahm, J. A. Washington “Antibacterial susceptibility tests: dilution methods” in: Manual of Clinical Microbiology, ed. A. Balows, W. J. Hausler, Jr, K. L. Hermann, H. D. Isenberg, H. J. Shadomy, 1991, American Society for Microbiology). According to this method a concentration in aqueous solution of substance having antimicrobial activity able to inhibit the growth of some bacterial strains is determined. For the precursor the maximum concentration of the substance at which the microbial growth is still observed under the adopted experimental conditions is selected and the same concentration is used for the corresponding nitrate salt. The solvents and the necessary dilutions for preparing the strain substances of the antibiotics to be tested are prepared according to procedures standard and well known to the person skilled in the field (National Committee for Clinical Laboratory Standards, 1990 “Methods for dilution antimicrobial susceptibility tests for bacteria that grow aerobically. Approved standard M7-A2. National Committee for Clinical Laboratory Standards, Villanova, Pa.). Also the preparation of the culture medium is carried out according to standard procedures and the CAMH broth is used (Cation-adjusted Mueller-Hinton broth) (National Committee for Clinical Laboratory Standards, 1990, Methods for dilution antimicrobial susceptibility tests for bacteria that grow aerobically. Approved standard M7-A2. National Committee for Clinical Laboratory Standards, Villanova, Pa.).\n(§3) The inoculation procedure is carried out according to standard procedures and the final concentration of the inocolum is of 5×10^5 CFU (colony forming unit)/ml. The used microorganisms have been Escherichia Coli (ATCC25922) and Staphylococcus Aureus (ATCC29213).\n(§4) The test tubes are incubated at 35° C. for 20 hr before reading. The microbial growth, or the absence of the same, is determined in a qualitative way, with the naked eye and it indicates the microbial resistance or, respectively, the sensitivity to the antimicrobial agent."}, "[2]": {"system": "Staphylococcus Aureus (ATCC29213)", "test": "Dilution test in vitro on medium for antibacterial agents, strain S. Aureus", "type": "cell-based", "settings": "CAMH broth, 5×10^5 CFU/ml, 35° C. for 20 hr, read with the naked eye", "text": "as §1, §2, §3, §4"}}, "data": [{"smiles": "CC1(C)S[C@@H]2[C@H](NC(=O)[C@H](N)c3ccccc3)C(=O)N2[C@H]1C(=O)O.O=[N+]([O-])O", "note": "[Ampicillin.HNO3, Ampicillin nitrate salt]", "values": [{"measurement": "RESPONSE (microbial growth)", "setting": "[1]; concentration 1.0 μg/ml", "result": "No growth"}]}, {"smiles": "CC1(C)S[C@@H]2[C@H](NC(=O)[C@H](N)c3ccccc3)C(=O)N2[C@H]1C(=O)O", "note": "[Ampicillin]", "values": [{"measurement": "RESPONSE (microbial growth)", "setting": "[1]; concentration 1.0 μg/ml", "result": "Growth"}]}, {"smiles": "Cc1nnc(SCC2=C(C(=O)O)N3C(=O)[C@@H](NC(=O)Cn4cnnn4)[C@H]3SC2)s1.O=[N+]([O-])O", "note": "[Cefazolin.HNO3, Cefazolin nitrate salt]", "values": [{"measurement": "RESPONSE (microbial growth)", "setting": "[1]; concentration 0.5 μg/ml", "result": "No growth"}]}, {"smiles": "Cc1nnc(SCC2=C(C(=O)O)N3C(=O)[C@@H](NC(=O)Cn4cnnn4)[C@H]3SC2)s1", "note": "[Cefazolin]", "values": [{"measurement": "RESPONSE (microbial growth)", "setting": "[1]; concentration 0.5 μg/ml", "result": "Growth"}]}, {"smiles": "O=C(O)c1cn(C2CC2)c2cc(N3CCNCC3)c(F)cc2c1=O.O=[N+]([O-])O", "note": "[Ciprofloxacin.HNO3, Ciprofloxacin nitrate salt]", "values": [{"measurement": "RESPONSE (microbial growth)", "setting": "[2]; concentration 1.0 μg/ml", "result": "No growth"}]}, {"smiles": "O=C(O)c1cn(C2CC2)c2cc(N3CCNCC3)c(F)cc2c1=O", "note": "[Ciprofloxacin]", "values": [{"measurement": "RESPONSE (microbial growth)", "setting": "[2]; concentration 0.05 μg/ml", "result": "Growth"}]}, {"smiles": "CCCC1CC(C(=O)NC(C(C)Cl)C2OC(SC)C(O)C(O)C2O)N(C)C1.O=[N+]([O-])O", "note": "(centres unmarked) [Clindamycin.HNO3, Clindamycin nitrate salt]", "values": [{"measurement": "RESPONSE (microbial growth)", "setting": "[2]; concentration 0.03 μg/ml", "result": "No growth"}]}, {"smiles": "CCC[C@@H]1C[C@@H](C(=O)N[C@@H]([C@H]2O[C@H](SC)[C@H](O)[C@@H](O)[C@H]2O)[C@H](C)Cl)N(C)C1", "note": "[Clindamycin]", "values": [{"measurement": "RESPONSE (microbial growth)", "setting": "[2]; concentration 0.03 μg/ml", "result": "Growth"}]}, {"smiles": "CC[C@H]1OC(=O)[C@H](C)[C@@H](O[C@H]2C[C@@](C)(OC)[C@@H](O)[C@H](C)O2)[C@H](C)[C@@H](O[C@@H]2O[C@H](C)C[C@H](N(C)C)[C@H]2O)[C@](C)(O)C[C@@H](C)C(=O)[C@H](C)[C@@H](O)[C@]1(C)O.O=[N+]([O-])O", "note": "[Erythromycin.HNO3, Erythromycin nitrate salt]", "values": [{"measurement": "RESPONSE (microbial growth)", "setting": "[2]; concentration 0.06 μg/ml", "result": "No growth"}]}, {"smiles": "CC[C@H]1OC(=O)[C@H](C)[C@@H](O[C@H]2C[C@@](C)(OC)[C@@H](O)[C@H](C)O2)[C@H](C)[C@@H](O[C@@H]2O[C@H](C)C[C@H](N(C)C)[C@H]2O)[C@](C)(O)C[C@@H](C)C(=O)[C@H](C)[C@@H](O)[C@]1(C)O", "note": "[Erythromycin]", "values": [{"measurement": "RESPONSE (microbial growth)", "setting": "[2]; concentration 0.06 μg/ml", "result": "Growth"}]}, {"smiles": "Cc1cc(NS(=O)(=O)c2ccc(N)cc2)no1.O=[N+]([O-])O", "note": "[Sulfamethoxazole.HNO3, Sulfamethoxazole nitrate salt]", "values": [{"measurement": "RESPONSE (microbial growth)", "setting": "[2]; concentration 20 μg/ml", "result": "No growth"}]}, {"smiles": "Cc1cc(NS(=O)(=O)c2ccc(N)cc2)no1", "note": "[Sulfamethoxazole]", "values": [{"measurement": "RESPONSE (microbial growth)", "setting": "[2]; concentration 20 μg/ml", "result": "Growth"}]}, {"smiles": "COc1cc(Cc2cnc(N)nc2N)cc(OC)c1OC.O=[N+]([O-])O", "note": "[Trimethoprim.HNO3, Trimethoprim nitrate salt]", "values": [{"measurement": "RESPONSE (microbial growth)", "setting": "[2]; concentration 0.5 μg/ml", "result": "No growth"}]}, {"smiles": "COc1cc(Cc2cnc(N)nc2N)cc(OC)c1OC", "note": "[Trimethoprim]", "values": [{"measurement": "RESPONSE (microbial growth)", "setting": "[2]; concentration 0.5 μg/ml", "result": "Growth"}]}]}
